Experimental data reported in EP0435794A1, “Alkenyl- or heteroaryl thio, sulfone, sulfoxy herbicides” (RHONE-POULENC AGROCHIMIE, priority 1989, dated 1991).

Legend:
Type in all cases: in vivo
[1] = test system: soja; test: Exemple C: selectivity test in field crops, pre-emergence (crop); conditions: 24 days, 0 or 1 = selective; note: ranges in brackets are in %
From the text: (§1) Exemple C - Essai de sélectivité en grandes cultures avec application herbicide, en prélevée des espèces végétales
(§2) Dans des pots de 7 X 7 X 8 cm remplis de terre agricole légère, on sème un nombre de graines déterminé en fonction de l'espèce végétale et de la grosseur de la graine.
(§3) On recouvre ensuite les graines d'une couche de terre d'environ 3 mm d'épaisseur.
(§4) Les pots sont alors traités par pulvérisation de bouillie en quantité correspondant à une dose volumique d'application de 500 l/ha et contenant la matière active à la concentration désirée.
(§5) La bouillie a été préparée de la même manière qu'à l'exemple A.
(§6) Les pots traités sont ensuite placés dans des bacs destinés à recevoir l'eau d'arrosage, en subirrigation, et maintenus pendant 24 jours à température ambiante sous 70 % d'humidité relative.
(§7) Le relevé est effectué de la façon suivante:
(§8) Au bout de 24 jours, on mesure un pourcentage (D) de destruction du nombre de pieds dans le pot traité par rapport au nombre de plantes dans les pots non traités (témoin). On mesure, sur les plantes traitées restantes, le pourcentage de réduction de taille (RT) par rapport aux plantes témoins.
(§9) Le pourcentage de volume foliaire non détruit par le produit est donc donné par la formule: ([100-D] X [100-RT])/(100)= A [formula]
(§10) Cette valeur A est transformée en notation de 0 à 5 selon l'échelle suivante:
(§11) Ainsi, un produit est jugé comme sélectif vis à vis de la culture lorsque la valeur A notée est de 0 ou 1.
(§12) Les résultats obtenus sont présentés dans l'exemple C pour des doses d'application de 500, 1000, 2000 ou 4000 g de matière active par hectare selon les produits.
(§13) Les espèces végétales utilisées dans cet exemple sont:
(§14) Comme on peut le voir sur le tableau de résultats de cet exemple C, de nombreux produits présentent une excellente activité antigraminée de prélevée tout en montrant une excellente sélectivité pour 1 ou 2 ou 3 ou 4 des 4 cultures testées = blé, maïs, riz, soja.

[2] = test system: blé; test: as above; conditions: 24 days, 0 or 1 = selective; note: ranges in brackets are in %
From the text: as §1, §2, §3, §4, §5, §6, §7, §8, §9, §10, §11, §12, §13, §14

[3] = test system: maïs; test: as above; conditions: 24 days, 0 or 1 = selective; note: ranges in brackets are in %
From the text: as §1, §2, §3, §4, §5, §6, §7, §8, §9, §10, §11, §12, §13, §14

[4] = test system: riz; test: as above; conditions: 24 days, 0 or 1 = selective; note: ranges in brackets are in %
From the text: as §1, §2, §3, §4, §5, §6, §7, §8, §9, §10, §11, §12, §13, §14

[5] = test system: Digitaria sanguinalis; test: Exemple C: selectivity test in field crops, pre-emergence (weed); conditions: dose 1 Kg m.a./ha, 24 days
From the text: as §1, §2, §3, §4, §5, §6, §7, §8, §9, §10, §11, §12
(§15) Les espèces végétales utilisées dans cet exemple sont: […]

[6] = test system: Sorghum halepense; test: as above; conditions: 24 days
From the text: as §1, §2, §3, §4, §5, §6, §7, §8, §9, §10, §11, §12, §15

[7] = test system: Alopecurus myosuroides; test: as above; conditions: 24 days
From the text: as §1, §2, §3, §4, §5, §6, §7, §8, §9, §10, §11, §12, §15

[8] = test system: Panicum milicaeum; test: as above; conditions: 24 days
From the text: as §1, §2, §3, §4, §5, §6, §7, §8, §9, §10, §11, §12, §15

[9] = test system: Echinochloa crus-galli; test: as above; conditions: 24 days
From the text: as §1, §2, §3, §4, §5, §6, §7, §8, §9, §10, §11, §12, §15

[10] = test system: Setaria faberii; test: as above; conditions: 24 days
From the text: as §1, §2, §3, §4, §5, §6, §7, §8, §9, §10, §11, §12, §15

| Structure (SMILES) | Notation de l'activité herbicide GLY ([1]; dose 1 Kg m.a./ha) | Notation de l'activité herbicide TRZ ([2]; dose 1 Kg m.a./ha) | Notation de l'activité herbicide ZEA ([3]; dose 1 Kg m.a./ha) | Notation de l'activité herbicide ORY ([4]; dose 1 Kg m.a./ha) | Notation de l'activité herbicide DIG [5] | Notation de l'activité herbicide SOR ([6]; dose 1 Kg m.a./ha) | Notation de l'activité herbicide ALO ([7]; dose 1 Kg m.a./ha) | Notation de l'activité herbicide PAN ([8]; dose 1 Kg m.a./ha) | Notation de l'activité herbicide ECh ([9]; dose 1 Kg m.a./ha) | Notation de l'activité herbicide SET ([10]; dose 1 Kg m.a./ha) | further results |
| --- | --- | --- | --- | --- | --- | --- | --- | --- | --- | --- | --- |
| C=C(CS(=O)(=O)c1sc(C)nc1C)c1cc(C)cc(C)c1 [compound 46] | 0 (90 à 100) | 0 (90 à 100) | 0 (90 à 100) | 0 (90 à 100) | 5 (O à 10) | 1 (70 à 90) | 5 (O à 10) | 5 (O à 10) | 4 (10 à 30) | 1 (70 à 90) |  |
| CC(=O)OC(CBr)(CS(=O)(=O)c1sccc1Br)c1ccccc1 (stereo not shown) [compound 60, 2-acétoxy 3-bromo 1-[(3-bromo 2-thiényl)sulfonyl] 2-phényl propane] |  |  |  |  |  |  |  |  |  |  | Notation de l'activité herbicide GLY ([1]; dose 0.5 Kg m.a./ha): 0 (90 à 100); Notation de l'activité herbicide TRZ ([2]; dose 0.5 Kg m.a./ha): 0 (90 à 100); Notation de l'activité herbicide ZEA ([3]; dose 0.5 Kg m.a./ha): 0 (90 à 100); Notation de l'activité herbicide ORY ([4]; dose 0.5 Kg m.a./ha): 0 (90 à 100); Notation de l'activité herbicide SOR ([6]; dose 0.5 Kg m.a./ha): 5 (O à 10); Notation de l'activité herbicide ALO ([7]; dose 0.5 Kg m.a./ha): 2 (50 à 70); Notation de l'activité herbicide PAN ([8]; dose 0.5 Kg m.a./ha): 3 (30 à 50); Notation de l'activité herbicide ECh ([9]; dose 0.5 Kg m.a./ha): 5 (O à 10); Notation de l'activité herbicide SET ([10]; dose 0.5 Kg m.a./ha): 4 (10 à 30) |
| O=S(=O)(CC(O)(CBr)c1cc(Cl)cc(Cl)c1)c1cccs1 (stereo not shown) [compound 62] | 0 (90 à 100) | 2 (50 à 70) | 1 (70 à 90) | 2 (50 à 70) | 5 (O à 10) | 2 (50 à 70) |  | 4 (10 à 30) | 5 (O à 10) | 4 (10 à 30) |  |
| Cc1ccsc1S(=O)(=O)CC(O)(CBr)c1ccccc1 (stereo not shown) [compound 63] | 0 (90 à 100) | 3 (30 à 50) | 2 (50 à 70) | 4 (10 à 30) | 5 (O à 10) | 5 (O à 10) | 3 (30 à 50) | 4 (10 à 30) |  | 5 (O à 10) |  |
| C=C(CS(=O)(=O)/C=C/C)c1ccccc1 [compound 70, (E)-2-phényl 1-(1-propénylsulfonyl)2-propène] |  |  |  |  |  |  |  |  |  |  | Notation de l'activité herbicide GLY ([1]; dose 2 Kg m.a./ha): 0 (90 à 100); Notation de l'activité herbicide TRZ ([2]; dose 2 Kg m.a./ha): 2 (50 à 70); Notation de l'activité herbicide ZEA ([3]; dose 2 Kg m.a./ha): 0 (90 à 100); Notation de l'activité herbicide ORY ([4]; dose 2 Kg m.a./ha): 1 (70 à 90); Notation de l'activité herbicide SOR ([6]; dose 2 Kg m.a./ha): 5 (O à 10); Notation de l'activité herbicide ALO ([7]; dose 2 Kg m.a./ha): 4 (10 à 30); Notation de l'activité herbicide PAN ([8]; dose 2 Kg m.a./ha): 3 (30 à 50); Notation de l'activité herbicide ECh ([9]; dose 2 Kg m.a./ha): 5 (O à 10); Notation de l'activité herbicide SET ([10]; dose 2 Kg m.a./ha): 3 (30 à 50) |
| CS(=O)(=O)OCC(O)(CS(=O)(=O)c1cccs1)c1cc(Cl)cc(Cl)c1 (stereo not shown) [compound 56, 2-(3,5-dichlorophényl) 1-méthylsulfonate 3-(2-thiénylsulfonyl) 2-propanol] | 0 (90 à 100) | 2 (50 à 70) | 1 (70 à 90) | 2 (50 à 70) | 5 (O à 10) | 2 (50 à 70) |  | 5 (O à 10) | 5 (O à 10) | 5 (O à 10) |  |
